Experimental data from patent publication EP2961753B1, “STANNOUS FLUORESCENT PROBE” (priority 2014, dated 2015).

How the values were obtained:
[1] = Metal ion sensing: fluorescence titration with Sn^2+ and selectivity against various metal ions; format: physicochemical; conditions: for fluorescence at 580 nm / fluorescence of the solution / selectivity on sensing Sn^2+: metal ions that turn fluorescence on: 20 µM in ethanol-water (1: 1, v/v, PH 7.04); for fluorescence at 580 nm: addition of Sn^2+ (0-20 eq); for fluorescence at 580 nm / selectivity on sensing Sn^2+: metal ions that turn fluorescence on / fluorescence enhancement by other transition and heavy metal ions: excitation 560 nm; for fluorescence of the solution: no metal ion added; for selectivity on sensing Sn^2+: metal ions that turn fluorescence on: various metal ions; for fluorescence enhancement by other transition and heavy metal ions: 20 µM, K^+, Ag^+, Ca^2+, Mg^2+, Zn^2+, Pb^2+, Ni^2+, Mn^2+, Co^2+, Cd^2+, Hg^2+
Experimental: Solutions of the metal ions (10.0 mM) are prepared in deionized water. A stock solutions of Compounds R1 and R2 (0.2 mM) are each prepared in ethanol and then diluted to 20 µM with ethanol-water (1: 1, v/v, pH 7.04) for spectral measurement. For titration experiments, a 2.0 mL solution of Compounds R1 and R2 (20 µM) are filled in a respective quartz optical cell of 1 cm optical path length. Sn^2+ stock solution is added into the quartz optical cell gradually by micro-pipette. Spectral data is recorded at 5 min after addition. In selectivity experiments, the test samples are prepared by placing appropriate amounts of metal ion stock into 2.0 mL solution of R1, R2 (20 µM). For fluorescence measurements, excitation is provided at 560 nm, while emission is collected from 565 to 700 nm.

[2] = pH titration of probe fluorescence; format: physicochemical; conditions: 10 µM in PBS, fluorescence at 580 nm, excitation 560 nm, no Sn^2+
Experimental: pH titration of Compounds R1 and R2 is described. Stock solutions of Compounds R1 and R2 are respectively added to sodium phosphate buffers of various pH to a final concentration of 10 µM. The fluorescence emission spectra are recorded as a function of pH using λex at 560 nm. The titration curves are plotted by fluorescence emission intensities at 580 nm versus pH.
The impact of pH values on fluorescence is described. The pirolactam ring of the rhodamine derivatives will open in a certain pH range and indicates the fluorescence of rhodamine. It is therefore necessary to check the fluorescence properties of Compounds R1 and R2 in solutions with different pH values. […] Considering the application of Sn^2+ probe R1 and R2 intracellular or extracellular may be disturbed by the pH, the acid-base titration experiments are carried out by adjusting the pH with an aqueous solution of NaOH and HCl in Phosphate-Buffered Saline ("PBS") (Fig.2 a and b). […] Figures 2a and 2b show the dependence of fluorescence at 580 nm of comparative Compound R1 and inventive Compound R2 (10 µM) at different pH in PBS solution. Excitation was at 560 nm.

| Compound | fluorescence at 580 nm [1] | fluorescence of the solution [1] | selectivity on sensing Sn^2+: metal ions that turn fluorescence on [1] | fluorescence enhancement by other transition and heavy metal ions [1] | pH range for inducing fluorescence turning on [2] |
| --- | --- | --- | --- | --- | --- |
| CCN(CC)c1ccc2c(c1)Oc1cc(N(CC)CC)ccc1C21c2ccccc2C(=O)N1NC(=O)OC(C)(C)C [Compound R2] | turned on and grown drastically | non-fluorescent | tuning on just in the presence of Sn^2+ and Cr^3+ | minimal enhancement | 2-4.5 |
| Spiro[1H-isoindole-1,9'-[9H]xanthen]-3(2H)-one, 2-[2-[bis(2-hydroxyethyl)amino]amino]ethyl]-3',6'-bis(diethylamino) [Compound R1] | turned on and grown drastically | non-fluorescent | tuning on just in the presence of Sn^2+ and Cr^3+ | minimal enhancement | 2.5-6 |
